Tested on: Erwinia carotovora carotovora strain SR319 (Ecc SR319)
Assay: Antibacterial bioassay (MCIC)
Type: cell-based
Description: Erwinia carotovora carotovora strain SR319 (Ecc SR319) (a gift of Dr. C. H. Liao, USDA-ARS, Philadelphia, Pa.) was streaked on a plate of Luria-Bertani ("LB") broth agar and grown overnight at 28° C. After 24 hours, a loopful of Ecc SR319 was picked from the agar plate and was added to 3 ml of LB broth (10 g Bacto-tryptone, 5 g Bacto-yeast extract, and 10 g sodium chloride per liter of solution; autoclaved sterile) in a capped sterile 10 ml test tube. This culture was grown overnight before its optical density at 630 nm was recorded using a Dynatech MR 600 microplate reader (Dynatech Laboratories, Inc., Alexandria, Va.). A portion of the overnight culture was adjusted with Luria broth to obtain a culture with an optical density at 630 nm of 0.2. About 250 microliters of this culture was added to 2250 microliters of Luria broth in a capped, sterile 10 ml test tube before this diluted culture was grown for 3-4 hours at 28° C. in a shaking incubator until the optical density of the freshly grown culture at 630 nm reached 0.2. […] The optical density of each Ecc SR319 culture well was recorded at 20 hours and then at 44 hours. A minimum complete inhibitory concentration (MCIC) was then determined for each replicate set of varying peptide concentrations at which no bacterial growth was observed. […]

Substance: Met-Mag 1 dimer (head-to-tail) [Peptide No. 9]
- MCIC Values (Ecc SR319) (mean after 20 hours of treatment, at least three replicate experiments): 33 +/- 5 micrograms per mL
- activity against Ecc SR319 compared with parent monomers (in words) (tested at equivalent microgram per mL quantities, parent monomers Pep Nos. 1, 2, 4, and 12): better activity than at least one of the parent monomers
